Measurements: ChEMBL document CHEMBL3124888, “Inhibiting the HIV integration process: past, present, and the future” (J Med Chem, 2014)
Converted amounts (≈) assume the structure as drawn. Blank lines part the entries; values can stand above or below the molecule they belong to.

Columns and labels:
[1] = test system: Human immunodeficiency virus 1; assay: Antiviral activity against HIV-1 3B infected in human C8166 cells assessed as inhibition of viral replication by MTT assay; assay type: functional, organism-based; conditions: Human immunodeficiency virus 1, 3B
[2] = biological target: T1, Human immunodeficiency virus type 1 integrase (Human immunodeficiency virus 1, UniProt Q7ZJM1); assay: Inhibition of HIV-1 integrase binding to viral DNA by SPR-based competitive assay
[3] = Selectivity index, ratio of CC50 for human MT4 cells to EC50 for HIV-1 infected in human MT4 cells; assay type: toxicity, cell-based; conditions: read-out: Ratio CC50/EC50
[4] = test system: Human immunodeficiency virus 1; assay: Antiviral activity against HIV-1 infected in human MT4 cells assessed as reduction of virus-induced cytopathic effect by MTT assay; assay type: functional, organism-based; conditions: Human immunodeficiency virus 1, MT4
[5] = test system: Human immunodeficiency virus 1; assay: Antiviral activity against HIV-1 by cell-based assay; assay type: functional, organism-based
[6] = biological target: T1, Human immunodeficiency virus type 1 integrase; assay: Inhibition of HIV-1 integrase strand transfer activity preincubated for 30 mins followed by 5'-end 32P-labeled linear double-stranded oligonucleotide addition
[7] = biological target: T1, Human immunodeficiency virus type 1 integrase; assay: Inhibition of HIV-1 integrase 3'-end processing activity preincubated for 30 mins followed by 5'-end 32P-labeled linear double-stranded oligonucleotide addition
[8] = biological target: T1, Human immunodeficiency virus type 1 integrase; assay: Inhibition of HIV-1 integrase 3'-end processing activity
[9] = biological target: T1, Human immunodeficiency virus type 1 integrase; assay: Inhibition of HIV1 integrase strand transfer activity
[10] = test system: Human immunodeficiency virus 1; assay: Antiviral activity against HIV-1 NL4-3 infected in human HuT78 cells assessed as inhibition of viral p24 production incubated for 4 days followed by compound washout measured after 48 hrs; assay type: functional, organism-based; conditions: Human immunodeficiency virus 1, NL4-3, HuT78
[11] = Inhibition of HIV-1 His6-tagged integrase/Flag-tagged LEDGF-75 (unknown origin) interaction by AlphaScreen assay
[12] = Inhibition of HIV1 integrase/LEDGF-75 (unknown origin) interaction

Structure (SMILES): Cc1ccc(-c2c(C(OC(C)(C)C)C(=O)O)cnc3sc(C)cc23)cc1 (configuration not stated)
selectivity ratio [3]: 1390 | EC50 [4]: 0.069 µM

Structure (SMILES): O=C(c1ccccc1)c1ccc(C(c2c(O)c3ccccc3oc2=O)c2c(O)c3ccccc3oc2=O)cc1
IC50 [6]: 18 µM | IC50 [7]: 27 µM

Structure (SMILES): C=CCN(Cc1ccccc1C(=O)NC(c1ccc(OC)cc1)c1ccc(OC)cc1)Cc1ccc2c(c1C(=O)O)OCO2
EC50 [10]: 29 µM | IC50 [11]: 8.1 µM

Further lines, with some results ahead:

IC50 [2]: 7.29 µM
Structure (SMILES): O=C(CN1CCCC1)Nc1ccc(Cc2ccc(NC(=O)CN3CCCC3)cc2)cc1
EC50 [1]: 17.1 µg/mL (≈ 40.5 µM)

EC50 [5]: 23.8 µg/mL (≈ 39.9 µM)
Structure (SMILES): CCOc1cc(/C=C2\SC(=O)N(CC(=O)c3ccccc3)C2=O)c(Br)cc1OCc1ccc(C(=O)O)cc1

IC50 [8]: 3 µM | IC50 [9]: 3 µM
Structure (SMILES): COC(=O)[C@H](COC(=O)/C=C/c1ccc(OC(C)=O)c(OC(C)=O)c1)NC(=O)/C=C/c1ccc(OC(C)=O)c(OC(C)=O)c1

IC50 [12]: 6.54 µM
Structure (SMILES): C[C@@](Cc1ccc(O)c(O)c1)(NN)C(=O)O [CARBIDOPA]
